Measured values as given in patent US12479888B2, “Polypeptide and application thereof” (HDL SOLUTIONS OTTAWA, priority 2019, dated 2025).
Several values for one entry are separate records, joined by “and”; a condition that tells them apart may be missing. Equal entries are not always repeated. Ends that are not written are not given here. * marks the point of attachment. Stearoyl = CCCCCCCCCCCCCCCCCC(=O)*

Assays:
Format in all cases: in vivo
apoE knockout mice [1] = experiment: Oil Red O staining of aortic root cryostat sections, area of neutral lipids; details: HFD+21H21 vs HFD, 50 μg tail vein once every four days, 10 injections
Text: (§1) Male apoE knockout mice (C57BL/6J) at age of 10 weeks were purchased from GemPharmatech, Nanjing, Jiangsu, China. The mice were fed with low fat diet [SPF growth and reproduction feed for rats and mice: 12.95% fat (wt/wt), 24.02% protein (wt/wt)] from Beijing KeaoXieli Feed Co. Ltd., Beijing, China in a pathogen-free facility for two weeks, and then divided into the following three groups (8 mice each group): (a) the control group was fed low fat diet, referred to as Chow; (b) the high-fat group was fed high-fat diet (HFD) [21% fat (wt/wt), 0.15% (wt/wt) cholesterol, 20% protein (wt/wt), Research Diets, New Brunswick, NJ, D12079B], referred to as the HFD; (c) the treatment group was fed high-fat diet plus the injection through tail vein with polypeptide 21H21 (50 μg/200μL 1× PBS) once every four days, referred to as the HFD+21H21. The total injection was 10 times. One day after the last injection, the mice were anesthetized and euthanized in carbon dioxide, and then blood, liver and aorta were collected. During the period of the experiment, each group of mice was weighed. All animal experiments were carried out in accordance with the animal management guidelines of the People's Republic of China.
The upper half of the heart together with the aortic root tissue collected in Experimental Example 1 was embedded in OCT compound (Sakura Tissue-Tek) and stored at −80° C. […]

LDLR-deficient mice = experiment: Oil Red O staining of full-length aorta, area of neutral lipids; details: HFD+21H21 vs HFD, 50 μg tail vein once every three days, 10 injections
Text: (§2) Male LDLR-deficient mice (C57BL/6-Ldlrem1Cd82/Nju) at age of 11 weeks were purchased fromGemPharmatech, Nanjing, Jiangsu, China. The mice were fed with low fat diet [SPF growth and reproduction feed for rats and mice: 12.95% fat (wt/wt), 24.02% protein (wt/wt)] from Beijing KeaoXieli Feed Co. Ltd., Beijing, China in a pathogen-free facility for two weeks, and then divided into the following three groups (8 mice each group): (a) the control group was fed low fat diet, referred to as Chow; (b) the high-fat group was fed high-fat diet (HFD) [21% fat (wt/wt), 0.15% (wt/wt) cholesterol, 20% protein (wt/wt), Research Diets, New Brunswick, NJ, D12079B], referred to as the HFD; (c) the treatment group was fed high-fat diet plus the injection through tail vein with polypeptide 21H21(50μg/200μL lx PBS) once every three days, referred to as the HFD+21H21. The total injection was 10 times. One day after the last injection, the mice were anesthetized and euthanized in carbon dioxide, and then blood, liver and aorta werecollected. During the period of the experiment, each group of mice was weighed. All animal experiments were carried out in accordance with the animal management guidelines of the People's Republic of China.
Aorta separation in Experimental Example 4 was carried out as Tangirala RK, et al. (Circulation. 1999; 100: 1816-1822). […]

[2] = Body weight of LDLR-deficient mice on high-fat diet
Text: as §2

[3] = Body weight of apoE knockout mice on high-fat diet
Text: as §1

apoE knockout mice [4] = experiment: Oil Red O staining of full-length aorta, area of neutral lipids; details: HFD+21H21 vs HFD, 50 μg tail vein once every four days, 10 injections, p value=4.40108E-05
Text: as §1
Aorta separation in Experimental Example 1 was carried out as Tangirala R K, et al. (Circulation. 1999; 100: 1816-1822). […]

apoE knockout mice [5] = experiment: Oil Red O staining of liver cryostat sections, area of neutral lipids; details: HFD+21H21 vs HFD, 50 μg tail vein once every four days, 10 injections, p value=0.0004
Text: as §1
Liver tissue collected in Experimental Example 1 was embedded in OCT compound (Sakura Tissue-Tek) and then stored at −80° C. […]

21H21: Stearic acid conjugated to the N-terminus of polypeptide SEQ ID NO: 3 (FAYLQDVVEQAIIRVLTGTEK) (Stearoyl-FAYLQDVVEQAIIRVLTGTEK)
Prevention of accumulation of neutral lipids at the aortic root caused by high-fat diet (apoE knockout mice [1]): 35%
Prevention of atherosclerotic lesion of full-length aorta (LDLR-deficient mice): 94%
Percentage of weight gain during experiment ([2]; HFD + 21H21 50 μg tail vein once every three days): 10.02%
Average body weight after experiment ([2]; HFD + 21H21 50 μg tail vein once every three days, 10 injections): 29.2 ± 0.02 g
Average body weight before experiment ([2]; HFD + 21H21 group (n = 8), baseline): 26.54 ± 0.02 g
Percentage of weight gain offset by 21H21 ([2]; HFD + 21H21 vs HFD): 29% and 29.17%
Effect on weight gain by high-fat diet ([3]; 50 μg per mouse i.v. once every four days): able to offset weight gain
Percentage decrease of body weight (HFD + 21H21 vs HFD) ([3]; Day 88): 12.82%
Average body weight per mouse ([3]; Day 88, HFD + 21H21 50 μg tail vein once every four days): 24.38 g
Percentage decrease of body weight (HFD + 21H21 vs HFD) ([3]; Day 97): 14.46%
Average body weight per mouse ([3]; Day 97, HFD + 21H21 50 μg tail vein once every four days): 24.83 g
Percentage decrease of body weight (HFD + 21H21 vs HFD) ([3]; Day 105): 15.79%
Average body weight per mouse ([3]; Day 105, HFD + 21H21 50 μg tail vein once every four days): 25.21 g
Percentage decrease of body weight (HFD + 21H21 vs HFD) ([3]; Day 110): 13.82%
Average body weight per mouse ([3]; Day 110, HFD + 21H21 50 μg tail vein once every four days): 25.61 g
Percentage decrease of body weight (HFD + 21H21 vs HFD) ([3]; Day 119): 12.24%
Average body weight per mouse ([3]; Day 119, HFD + 21H21 50 μg tail vein once every four days): 26.63 g
Percentage decrease of body weight (HFD + 21H21 vs HFD) ([3]; Day 123): 15.04%
Average body weight per mouse ([3]; Day 123, HFD + 21H21 50 μg tail vein once every four days): 26.76 g
Prevention of atherosclerotic lesion of full-length aorta (apoE knockout mice [4]): 48%
Prevention of accumulation of neutral lipids in liver tissue caused by high-fat diet (apoE knockout mice [5]): 53%
